Measurements from US4032635A, “Pharmaceutical method for the therapy of immune diseases” (Zaidan Hojin Biseibutsu Kagaku Kenkyu Kai, priority 1975, dated 1977).
Like-named read-outs stand apart in the source and are kept apart here.

Experiments:
[1] = tested on: experimental allergic encephalomyelitis (EAE); details: cited from earlier work
[2] = tested on: nucleic acid and/or protein synthesis; details: cited from earlier work
[3] = tested on: autoimmune diseases, some infection allergies and dermatological contact allergies, transplantation immunological responses; details: in vivo; cited from earlier work
[4] = tested on: humoral and cell-mediated immunities; details: cited from earlier work
[5] = tested on: Delayed-Type Hypersensitivity (DTH) to sheep red blood cells (SRBC); experiment: Suppression of delayed-type hypersensitivity (SRBC footpad swelling); type: in vivo, mouse; details: for inhibition in vivo at 1 mg: Erythrocyte, 1 mg./mouse i.p.; for suppression of DTH reaction: anti-inflammatory drugs and protease-inhibitors, 1 mg./mouse
Procedure: The compounds of Formula (I) show suppression of various delayed-type hypersensitivity. In reference to the method by Lagrange [J. Exp. Med. 139, 528 (1974)], 10^8 sheep red blood cells (SRBC) without adjuvant were subcutaneously injected into the mouse hind footpad to immunize the animal. Four days later the animals were challenged by subcutaneous injection of 10^8 SRBC into another footpad. DTH response was measured as the increase in the thickness of footpad 24 hours after the injection of SRBC.
Varying doses of Compound-1 were administered orally or intraperitoneally either at the time of immunization (day 0) or challenge (day 4).
In FIG. 1 the ordinate indicates the swelling (× 0.1 mm.) of mice footpads on day 5 and the abscissa indicates the dose of Compound-1 per mouse administered by the oral (right) and intraperitoneal (left) routes. Solid line curve indicates the relationship when Compound-1 was administered on day 0 and the dotted line curve indicates the relationship when given on day 4.
The compounds were administered intraperitoneally in a dose 1 mg./mouse at the time of immunization (day 0) or challenge (day 4). Table 1 includes the results of humoral antibody response described later.

[6] = tested on: primary antibody formation to sheep red blood cells (SRBC), spleen cells; experiment: Suppression of primary antibody formation (plaque forming cells, Jerne's method); type: in vivo, mice (ddY-strain); details: for inhibition in vivo at 1 mg: Erythrocyte, ip, 96 h, 1 mg./mouse i.p., read-out: Suppression, Plaque Forming Cells (suppression rate of primary antibody formation)
Procedure: 10^8 sheep red blood cells (SRBC) were injected intravenously into ddY-strain mice to immunize the animals, when the compounds of Formula (I) were administered intraperitoneally.
Each compound was administered intraperitoneally in the dosage of 1 mg./mouse.

[7] = tested on: experimental allergic encephalomyelitis (EAE); experiment: Suppression of experimental allergic encephalomyelitis (EAE); type: in vivo, guinea pigs; details: for recurrence of paralysis after discontinuation: after discontinuation of the drug
Excerpt: By injecting basic protein (B.P.) the extract from central nervous tissue, together with Freund's complete adjuvant, a typical EAE symptom develops. Guinea pigs show drastic reduction of body weight and development of paralysis about ten days after injection with BP and they finally die within 17 days after the injection of BP.

[8] = tested on: contact allergy induced by dinitrochlorobenzene (DNCB); experiment: Suppression of contact allergy induced by dinitrochlorobenzene (DNCB); type: in vivo, guinea pigs; parameters: key to Skin Lesion Score, Animal No. 1 / Skin Lesion Score, Animal No. 2 / Skin Lesion Score, Animal No. 3: +: slight erythema; ++: marked erythema and slight swelling; +++: marked induration and swelling; details: 100 mg./kg. i.p. at 0.5, 24 and 48 hours before challenge; for Skin Lesion Score, Animal No. 1 / Skin Lesion Score, Animal No. 2 / Skin Lesion Score, Animal No. 3: control None +++
Procedure: For example, approximately 0.1 ml. of a 10% solution of DNCB in acetone was administered percutaneously on the ear. Fourteen days later animals were skin tested on a shaved flank by topical spotting (about 0.05 ml.) of a 0.1% solution of DNCB in acetone. Skin lesions were evaluated and scored 24 hours later as follows:
Guinea pigs readily develop contact hypersensitivities of the delayed-type by simple topical application of DNCB.

[9] = tested on: systemic anaphylactic shock; experiment: Suppression of systemic anaphylactic shock (egg albumin); type: in vivo, mice; details: for time of death after induction, Animal No. 1: control 16; for time of death after induction, Animal No. 2: control 25; for time of death after induction, Animal No. 3: control 27; for time of death after induction, Mouse No. 1: control 15
Procedure: The mice were immunized by a subcutaneous injection of a mixture of 0.1 ml. (100 mcg.) egg albumin and 0.1 ml. Freund's complete adjuvant, and used for experiment four months thereafter. In control mice sensitized in the above manner, the shock symptom emerged after induction by intravenous injection of 100 mcg. egg albumin and most of the animals died from shock within about 40 minutes.
Table 3A show the suppression effect with Compound -1 when given as a single dose (0.25 or 1.0 mg./mouse, i.p.) at the time of sensitization. […] In the animals receiving the test drug, the time until death after induction was somewhat delayed and most of the animals survived the shock.

[10] = tested on: passive cutaneous anaphylaxis (PCA); experiment: Suppression of passive cutaneous anaphylaxis (PCA); type: in vivo, guinea pigs; details: dilution giving a 10 mm. diameter blue zone; for Max. Dilution of Antiserum, i.p.: i.p. 50 mg./kg.; for Max. Dilution of Antiserum, Oral: oral 100 mg./kg., control 1060
Procedure: The compounds of Formula (I) are active in suppressing passive cutaneous anaphylaxis (PCA) in guinea pigs. Guinea pigs received intradarmally serial dilutions of antiserum (0.1 ml.), which was obtained from guinea pigs immunized with a mixture of egg albumin and Freund's complete adjuvant. At the time of sensitization with antiserum, the compound of Formula (I) was administered either orally (100 mg./kg.) or intraperitoneally (50 mg./kg.).
Four hours later the animals were challenged by intravenous injection of a mixture of 5 mg. egg albumin and Evans blue dye. The reaction was measured 30 minutes later by the blue zone which emerged at the point of antiserum injection.

[11] = tested on: primary antibody formation in spleen cell culture; experiment: Antibody formation in spleen cell culture in vitro (hemolytic plaque assay); type: cell-based, mice
Procedure: Additional experiment to evaluate the effect of Compound-1 on primary antibody formation was made by spleen cell culture in vitro. According to the method described by Mishell and Dutton [J. Exp. Med., 126, 423 (1967)], dissociated spleen cells prepared from normal mice spleens were cultured with SRBC as antigen and at initiation of cultures Compound-1 was added, and then four days later, antibody formation in cultures was determined by Jerne's hemolytic plaque assay.

[12] = Acute toxicity, intraperitoneal; details: mouse, in vivo, ip, mice, read-out: LD50 (approximate)
Procedure: Acute toxicological studies were carried out on mice by intraperitoneal administration of the compounds of Formula (I). The approximate LD50 values for representative compounds are given as follows: […]

[13] = tested on: rats; experiment: One-month daily administration; type: in vivo; details: oral or i.p., daily 12.5, 50 or 200 mg./kg.
Procedure: Compound-1 and Compound-2 were given orally or intraperitoneally to rats in daily doses of 12.5, 50 or 200 mg./kg., respectively, for one month.

[14] = tested on: red blood cells; experiment: Heat-induced hemolysis of red blood cells / cell membrane stabilization; type: cell-based; details: Compound-1 compared with mefenamic acid or indomethacin
[15] = tested on: carrageenin-induced edema; details: 1 mg./mouse; cited from earlier work
[16] = 96 h, at challenge (day 4), read-out: Suppression, Delayed-Type Hypersensitivity, Administered at Induction (suppression rate)
[17] = ip, 0 h, at immunization (day 0), read-out: Suppression, Delayed-Type Hypersensitivity, Administered at Immunization (suppression rate)
[18] = 10 mg. i.p. once daily, days 3 to 21 after antigen, five animals
[19] = 0.25 mg./mouse i.p. at the time of sensitization
[20] = 1 mg./mouse i.p. at 0.5 and 5 hours before challenge
[21] = 1.0 mg./mouse i.p. at the time of sensitization

In the case of Sc1ncnc2nc[nH]c12 [6-mercaptopurine], the “EAE after discontinuation of the drug (known agents)” value ([1]; after discontinuation and following a latent period) is given as “the animals often develop paralytic EAE”, the “suppression of development of EAE (known agents)” value ([1]; at such high doses as would cause toxicity) is given as “can suppress the development of EAE” and the “effect on nucleic acid and/or protein synthesis” value [2] is given as “disrupt nucleic acid and/or protein synthesis”. For the same molecule, the “effectiveness in therapy of autoimmune diseases, allergies, transplantation responses” value [3] was “effective in the therapy of autoimmune diseases, some infection allergies and dermatological contact allergies”, the “dose at which effective / cytotoxicity” value [4] was “effective in general only at near-lethal doses owing to their cytotoxicity” and the “inhibition of humoral and cell-mediated immunities” value [4] was “inhibit both humoral and cell-mediated immunities”.

With O=C(Nc1cc(Cl)c(O)c(Cl)c1)c1ccccc1O [Compound-1, 3',5'-Dichloro-2,4'-dihydroxybenzanilide] the inhibition in vivo at 1 mg [5, 16] was greater than 75%, the inhibition in vivo at 1 mg [5, 17] was 0 to 25% and the “DTH suppression, administered on day 4 (FIG. 1)” value ([5]; varying doses, oral or i.p., at challenge (day 4)) was “DTH was suppressed in mice sensitized by footpad inoculation with SRBC”. The “DTH suppression, given at sensitization (day 0) (FIG. 1)” value ([5]; varying doses, oral or i.p., at sensitization (day 0)) was “not active when given at the time of sensitization (day 0)”, the “primary antibody formation in spleen cells of treated mice (FIG. 3)” value ([6]; 1000, 250, 62.5 and 15.6 mcg./mouse i.p.) was “apparently suppressed in proportion to increased amounts of Compound-1” and the inhibition in vivo at 1 mg [6] was greater than 75%. The “time of paralysis after antigen injection” value ([7]; 10 mg. i.p. once daily, days 3 to 21, four of five animals) was 13 to 16 days, the “animals with paralysis to a certain degree and course of symptoms” value [7, 18] was “four others showed paralysis to a certain degree at 13-16 days but the symptoms of EAE soon disappeared” and the “animals without sign of paralysis” value [7, 18] was “one gave no sign of the development of paralysis”. For the same molecule, the “recurrence of paralysis after discontinuation” value [7] was “no more paralytic symptoms recurred”, the “recurrence of paralysis after discontinuation” value ([7]; listed as compound-1) was “without recrudescence of paralysis after discontinuation of the drug” and the “suppressive effect on EAE” value ([7]; guinea pigs) was “potent suppressive effect on EAE”. The “inhibition of the response to DNCB” value [8] was “significant inhibition of the response to DNCB”, the “Skin Lesion Score, Animal No. 1” value [8] was “+” and the “Skin Lesion Score, Animal No. 2” value [8] was “+”. The “Skin Lesion Score, Animal No. 3” value [8] was “++”, the “time of death after induction, Animal No. 1” value [9, 19] was 18 min and the “time of death after induction, Animal No. 2” value [9, 19] was 21 min. The “time of death after induction, Animal No. 3” value [9, 19] was 22 min, the “time of death after induction, Mouse No. 1” value [9, 20] was 35 min and the “time of death after induction, Animal No. 1” value [9, 21] was 22 min. The “time of death after induction, Animal No. 2” value [9, 21] was 23 min, the “time of death after induction, Animal No. 3” value [9, 21] was 30 min and the “Max. Dilution of Antiserum, i.p.” value ([10]; control 1024) was 64. The “Max. Dilution of Antiserum, i.p.” value ([10]; control 1350) was 315, the “Max. Dilution of Antiserum, Oral” value [10] was 548 and the “cytotoxicity / anti-proliferative effect in vitro” value ([11]; in vitro) was “not cytotoxic nor anti-proliferative in vitro”. For the same molecule, the “number of nucleated cells in culture” value ([11]; spleen cell culture in vitro) was “no changes in the number of nucleated cells”, the “viable cell count in culture” value ([11]; spleen cell culture in vitro) was “no changes in the number of nucleated cells nor in the viable cell count” and the “number of plaque forming cells in culture” value ([11]; spleen cell culture in vitro, four days) was “significantly decreased”. For the same molecule, the LD50 [12] was 2400 mg/kg, the “symptoms or abnormality attributable to the drug” value [13] was “no particular symptoms or abnormality attributable to the drug dosage was noted” and the weight gain [13] was “normal”. The “suppression of heat-induced hemolysis of red blood cells” value (shortened to “suppression … of red blood cells”) [14] was “suppressed the heat-induced hemolysis of red blood cells to about the same extent as did mefenamic acid or indomethacin”.

For O=C(Nc1cc(Cl)cc(Cl)c1O)c1ccccc1O [Compound-2, 3',5'-Dichloro-2,2'-dihydroxybenzanilide], the inhibition in vivo at 1 mg [5, 16] was greater than 75%, the inhibition in vivo at 1 mg [5, 17] was 0 to 25% and the inhibition in vivo at 1 mg [6] was greater than 75%. For the same molecule, the “inhibition of the response to DNCB” value [8] was “significant inhibition of the response to DNCB”, the “Skin Lesion Score, Animal No. 1” value [8] was “+” and the “Skin Lesion Score, Animal No. 2” value [8] was “++”. The “Skin Lesion Score, Animal No. 3” value [8] was “++”, the “time of death after induction, Mouse No. 1” value [9, 20] was 10 min and the “time of death after induction, Mouse No. 2” value ([9]; 1 mg./mouse i.p. at 0.5 and 5 hours before challenge, control 18) was 35 min. For the same molecule, the “Max. Dilution of Antiserum, Oral” value [10] was 736, the LD50 [12] was 2500 mg/kg and the “symptoms or abnormality attributable to the drug” value [13] was “no particular symptoms or abnormality attributable to the drug dosage was noted”. The weight gain [13] was “normal”.

In the case of Cn1cnc([N+](=O)[O-])c1Sc1ncnc2nc[nH]c12 [azathioprine], the “effect on nucleic acid and/or protein synthesis” value [2] is given as “disrupt nucleic acid and/or protein synthesis”, the “dose at which effective / cytotoxicity” value [4] is given as “effective in general only at near-lethal doses owing to their cytotoxicity” and the “inhibition of humoral and cell-mediated immunities” value [4] is given as “inhibit both humoral and cell-mediated immunities”.

For COc1ccc2c(c1)c(CC(=O)O)c(C)n2C(=O)c1ccc(Cl)cc1 [indomethacin], the “suppression of DTH reaction” value [5] is listed as “little suppression of this DTH reaction”, the “suppression … of red blood cells” value [14] is listed as “about the same extent” and the “suppression of carrageenin-induced edema” value [15] is listed as “strongly suppress carrageenin-induced edema”.

In the case of Cc1cccc(Nc2ccccc2C(=O)O)c1C [mefenamic acid], the “suppression of DTH reaction” value [5] is listed as “little suppression of this DTH reaction”, the “suppression … of red blood cells” value [14] is listed as “about the same extent” and the “suppression of carrageenin-induced edema” value [15] is listed as “strongly suppress carrageenin-induced edema”.
